Data from patent publication US20130296430A1, “COMPOSITIONS AND METHODS FOR TREATING AUTISM AND AUTISM SPECTRUM DISORDER” (priority 2012, published 2013).

Tests used:
children with autism [1] = experiment: 12-week placebo-controlled study of NAC: Clinical Global Impression (CGI); type: in vivo, human
Text: The Clinical Global Impression (CGI) rating scales are commonly used measures of symptom severity, treatment response and the efficacy of treatments in treatment studies of patients with mental disorders (Guy, W., 1976, ECDEU Assessment Manual for Psychopharmacology, Rockville, Md., U.S. Department of Health, Education, and Welfare). The Clinical Global Impression-Severity scale (CGI-S) is a 7-point scale that requires the clinician to rate the severity of the patient's illness at the time of assessment, relative to the clinician's past experience with patients who have the same diagnosis. Considering total clinical experience, a patient is assessed on severity of mental illness at the time of rating 1=normal, not at all ill; 2=borderline mentally ill; 3=mildly ill; 4=moderately ill; 5=markedly ill; 6=severely ill; or 7=extremely ill.
A 12-week, double-blind randomized, placebo-controlled study of NAC in children with autism was conducted in the Autism & Developmental Disabilities Clinic in the Division of Child & Adolescent Psychiatry at Stanford University Medical Center. The recruitment period started in March 2009 and ended in September 2010. Subjects with and without mental retardation were included. After obtaining informed consent, subjects were screened and inclusion and exclusion criteria were assessed. No changes in eligibility criteria were applied throughout the study. This investigation was approved by the institutional review board at Stanford University School of Medicine. An investigational new drug application (IND#100905) was filed with the Food and Drug Administration, and the study was registered in National Institutes of Health at ClinicalTrials.gov (identifier number NCT00627705).
(§1) After the screening phase, baseline measures were obtained from subjects continuing to meet inclusion and exclusion criteria. Subjects were then randomized to either placebo or active based on age and gender. As NAC is a nutritional supplement, the quality control is predictably variable and therefore purity is not as stringent as prescription medications. Therefore, in the present study, the stability of the compound was ascertained and the integrity of the active agent was protected by packaging each NAC doses in individual pockets. The active compound and matching placebo were provided by BioAdvantex Pharma, Inc. (Mississauga, Ontario, Canada). […] Subjects randomized to the active drug were initiated at the dose of 900 mg every day for the first 4 weeks, then 900 mg twice daily for 4 weeks and 900 mg three times daily for 4 weeks. (This dose selection was based on previously published studies for other psychiatric conditions (Grant, J. et al., Arch Gen Psychiatry, 66:468-475 (2009); Berk, M. et al., Biol Psychiatry, 64:361-368 (2008); Berk, M. et al., Bio Psychiatry, 64:468-475 (2008)) and the previous experience of our group in studies of children with cystic fibrosis). Alternatively, subjects were initiated at the dose of 900 mg per day, 1,800 mg per day, or 2,700 mg per day of NAC. Alternatively, the subjects were initiated at the dose ranging from 900 mg per day to 2,700 mg per day of NAC.
If a subject could not tolerate a specific dose, s/he would be maintained at the highest tolerated dose. Subjects were evaluated at baseline, week 4, week 8 and week 12. The Aberrant Behavioral Checklist (ABC) (Aman, M. et al., Am J Ment Defic. 89:492-502 (1985)), the Clinical Global Impressions (CGI) (Guy, W., ECDEU Assessment Manual for Psychopharmacology, Rockville, Md., U.S. Department of Health, Education, and Welfare (1976)), and the Dosage Record and Treatment Emergent Symptom Scale (DOTES) (Guy, W., 1976, ECDEU Assessment Manual for Psychopharmacology, Rockville, Md., U.S. Department of Health, Education, and Welfare) were obtained in each visit. […]

children with autism [2] = experiment: 12-week placebo-controlled study of NAC: safety evaluation, adverse events (DOTES); type: in vivo, human
Text: Primary behavioral outcome measures, include, for example, but are not limited to, (a) the Aberrant Behavior Checklist (ABC) irritability subscale; and (b) Dosage Record and Treatment Emergent Symptom Scale (DOTES), which provides information on the presence, frequency and severity of side effects (Guy, W., ECDEU Assessment Manual for Psychopharmacology, Rockville, Md., U.S. Department of Health, Education, and Welfare (1976)). Secondary behavioral outcome measures include, but are not limited to, (a) the Clinical Global Impression (CGI); (b) ABC-Stereotypy subscale; (c) Repetitive Behavior Scale (RBS); and (d) Social responsiveness scale (SRS).
as §1
If a subject could not tolerate a specific dose, s/he would be maintained at the highest tolerated dose. Subjects were evaluated at baseline, week 4, week 8 and week 12. The Aberrant Behavioral Checklist (ABC) (Aman, M. et al., Am J Ment Defic. 89:492-502 (1985)), the Clinical Global Impressions (CGI) (Guy, W., ECDEU Assessment Manual for Psychopharmacology, Rockville, Md., U.S. Department of Health, Education, and Welfare (1976)), and the Dosage Record and Treatment Emergent Symptom Scale (DOTES) (Guy, W., 1976, ECDEU Assessment Manual for Psychopharmacology, Rockville, Md., U.S. Department of Health, Education, and Welfare) were obtained in each visit. Additional secondary measures were obtained at baseline and at week 12 and included the social responsiveness scale (SRS) (Constantino, J. et al., J. Dev Behav Pediatr., 21:2-11 (2000); Constantino, J. et al., J Autism Dev Disord., 33:427-433 (2003)), and the repetitive behavior scale-revised (RBS-R) (Bodfish, J. et al., The Repetitive Behavior Scale: A test manual (1998)).
The following adverse events (AEs) were more frequently reported in the NAC group than the placebo group, but differences were not statistically different (all p>0.100): depressed affect (1 vs. 0), akathisia (1 vs. 0), constipation (3 vs. 2), nausea/vomiting (6 vs. 3), increased appetite (2 vs. 0), diarrhea (3 vs. 1). The following AEs were reported more in the placebo group than the NAC group: excitement/agitation (3 vs. 2), increased motor activity (3 vs. 2), nasal congestion (6 vs. 4), decreased appetite (3 vs. 2), tremor (1 vs. 0), sweating (1 vs. 0), syncope/dizziness (1 vs. 0), increased salivation (2 vs. 0). One subject in each group reported insomnia and stomachache.

[3] = standardized mean difference NAC vs placebo at Week 12
[4] = NAC group, same in placebo group

CC(=O)N[C@@H](CS)C(=O)O [NAC, N-acetylcysteine]
CGI severity, Mean (SD) (children with autism [1]; Baseline (before treatment), NAC group n = 15): 5.1 (0.7) | CGI improvement, Mean (SD) (children with autism [1]; Week 12, NAC n = 14): 2.9 (1.1) | CGI severity, Mean (SD) (children with autism [1]; Week 12, NAC n = 14, 7-point scale): 4.5 (0.8) | CGI-S global severity, pattern NAC vs placebo (children with autism [1]; all randomized participants, p=0.170): no significant differences | CGI-I improvement, pattern NAC vs placebo (children with autism [1]; all randomized participants, p=0.449): no significant differences | CGI improvement, Cohen's d (children with autism [1]; [3]): .30 | CGI severity, Cohen's d (children with autism [1]; [3]): .47 | side effects observed, overall (children with autism [2]; 12-week study, up to 900 mg three times daily): Minimal side effects | adverse event reported: akathisia (count) (children with autism [2]; NAC group, placebo 0, p>0.100): 1 | adverse event reported: depressed affect (count) (children with autism [2]; NAC group, placebo 0, p>0.100): 1 | adverse event reported: increased appetite (count) (children with autism [2]; NAC group, placebo 0, p>0.100): 2 | adverse event reported: sweating (count) (children with autism [2]; NAC group, placebo 1): 0 | adverse event reported: syncope/dizziness (count) (children with autism [2]; NAC group, placebo 1): 0 | adverse event reported: tremor (count) (children with autism [2]; NAC group, placebo 1): 0 | adverse event reported: diarrhea (count) (children with autism [2]; NAC group, placebo 1, p>0.100): 3 | adverse event reported: increased salivation (count) (children with autism [2]; NAC group, placebo 2): 0 | adverse event reported: constipation (count) (children with autism [2]; NAC group, placebo 2, p>0.100): 3 | adverse event reported: decreased appetite (count) (children with autism [2]; NAC group, placebo 3): 2 | adverse event reported: excitement/agitation (count) (children with autism [2]; NAC group, placebo 3): 2 | adverse event reported: increased motor activity (count) (children with autism [2]; NAC group, placebo 3): 2 | adverse event reported: nausea/vomiting (count) (children with autism [2]; NAC group, placebo 3, p>0.100): 6 | adverse event reported: nasal congestion (count) (children with autism [2]; NAC group, placebo 6): 4 | adverse event reported: insomnia (subjects) (children with autism [2]; [4]): One | adverse event reported: stomachache (subjects) (children with autism [2]; [4]): One | subjects with worsening of baseline agitation and irritability requiring early termination (children with autism [2]; active group, later medical evaluation revealed severe constipation): one
